Measured values from patent US10294202B2, “Pyrrolidinones as herbicides” (FMC Corporation, priority 2013, dated 2019).

Tests used:
sandbur = experiment: Test E preemergence herbicide test; type: in vivo, Cenchrus echinatus; design: key: 0 = no effect, 100 = complete control
From the text: Seeds of plant species selected from corn (Zea mays), soybean (Glycine max), velvetleaf (Abutilon theophrasti), lambsquarters (Chenopodium album), wild poinsettia (Euphorbia heterophylla), pigweed, palmer (palmer pigweed, Amaranthus palmeri), waterhemp (common waterhemp, Amaranthus rudis), surinam grass (Brachiaria decumbens), crabgrass, large (large crabgrass, Digitaria sanguinalis), crabgrass, Brazil (Brazilian crabgrass, Digitaria horizontalis), panicum, fall (fall panicum, Panicum dichotomiflorum), foxtail, giant (giant foxtail, Setaria faberii), foxtail, green (green foxtail, Setaria viridis), goosegrass (Eleusine indica), johnsongrass (Sorghum halepense), ragweed (common ragweed, Ambrosia elatior), barnyardgrass (Echinochloa crus-galli), sandbur (southern sandbur, Cenchrus echinatus), arrowleaf […] rhombifolia), ryegrass, Italian (Italian ryegrass, Lolium multiflorum), dayflower, VA (Virginia dayflower, Commelina virginica), field bindweed (Convolvulus arvensis), morningglory (Ipomoea coccinea), nightshade (eastern black nightshade, Solanum ptycanthum), kochia (Kochia scoparia), nutsedge, yellow (yellow nutsedge, Cyperus esculentus), cocklebur (common cocklebur, Xanthium strumarium), smartweed (ladysthumb smartweed, Polygonum Persicaria) and beggarticks (hairy beggarticks, Bidens pilosa), were planted into a silt loam soil and treated preemergence with test chemicals formulated in a non-phytotoxic solvent mixture which included a surfactant. Treated plants and controls were maintained in a greenhouse for 21 days, after which time all species were compared to controls and visually evaluated. Plant response ratings, summarized in Table E, are based on a scale of 0 to 100 where 0 is no effect and 100 is complete control. A dash (-) response means no test result.

surinam grass = experiment: Test C pre-/postemergence herbicide test; type: in vivo, Brachiaria decumbens
From the text: Seeds of plant species selected from blackgrass (Alopecurus myosuroides), ryegrass, Italian (Italian ryegrass, Lolium multiflorum), wheat (winter wheat, Triticum aestivum), galium (catchweed bedstraw, Galium aparine), corn (Zea mays), crabgrass, large (large crabgrass, Digitaria sanguinalis), foxtail, giant (giant foxtail, Setaria faberii), johnsongrass (Sorghum halepense), lambsquarters (Chenopodium album), morningglory (Ipomoea coccinea), nutsedge, yellow (yellow nutsedge, Cyperus esculentus), pigweed (Amaranthus retroflexus), ragweed (common ragweed, Ambrosia elatior), soybean (Glycine max), barnyardgrass (Echinochloa crus-galli), oilseed rape (Brassica napus), waterhemp (common waterhemp, Amaranthus rudis), kochia (Kochia scoparia), oat, wild (wild oat, Avena fatua), surinam grass (Brachiaria decumbens), foxtail, green (green foxtail, Setaria viridis), goosegrass (Eleusine indica), bromegrass, downy (downy bromegrass, Bromus tectorum), nightshade (eastern black nightshade, Solanum ptycanthum), cocklebur (common cocklebur, Xanthium strumarium), cupgrass, woolly (woolly cupgrass, Eriochloa villosa), bermudagrass (Cynodon dactylon), sunflower, (common oilseed sunflower, Helianthus annuus), Russian thistle (Salsola kali) and velvetleaf (Abutilon theophrasti) were planted into a blend of loam soil and sand and treated preemergence with test chemicals formulated in a non-phytotoxic solvent mixture which included a surfactant. At the same time, plants selected from these crop and weed species and also barley (winter barley, Hordeum vulgare), […]), chickweed (common chickweed, Stellaria media), deadnettle (henbit deadnettle, Lamium amplexicaule), and canarygrass (littleseed canarygrass, Phalaris minor) were planted in pots containing Redi-Earth® planting medium (Scotts Company, 14111 Scottslawn Road, Marysville, Ohio 43041) comprising spaghnum peat moss, vermiculite, wetting agent and starter nutrients and treated with postemergence applications of test chemicals formulated in the same manner. Plants ranged in height from 2 to 18 cm (1- to 4-leaf stage) for postemergence treatments. Treated plants and controls were maintained in a greenhouse for 13 to 15 days, after which time all species were compared to controls and visually evaluated. Plant response ratings, summarized in Table C, are based on a scale of 0 to 100 where 0 is no effect and 100 is complete control. A dash (-) response means no test result.

monochoria = experiment: Test F flood (paddy) test; type: in vivo, Monochoria vaginalis; settings: 21 d, scale 0-100
Procedure, shortened: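 Visual injury ratings (0 no effect to 100 complete control) were taken 21 d after treatment against untreated controls. Compounds went directly into paddy water held 3 cm above soil, applied at the 2.0–2.5-leaf stage in sterilized Tama silt loam under a 30/27 °C, 16-h greenhouse regime.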

[1] = Preemergence, 62 g ai/ha, scale 0 to 100
[2] = Preemergence, 125 g ai/ha, scale 0 to 100 (0 no effect, 100 complete control)
[3] = Postemergence, 31 g ai/ha, scale 0 (no effect) to 100 (complete control)
[4] = Postemergence, 62 g ai/ha, scale 0 to 100 (0 no effect, 100 complete control)
[5] = Postemergence, 125 g ai/ha, scale 0 to 100 (0 no effect, 100 complete control)
[6] = Postemergence, 250 g ai/ha, scale 0 to 100 (0 no effect, 100 complete control)

SMILES	Plant response rating, Sandbur (sandbur; 31 g ai/ha)	Plant response rating, Sandbur (sandbur; 62 g ai/ha)	Plant response rating, Sandbur (sandbur; 125 g ai/ha)	Plant response rating, Sandbur (sandbur; 250 g ai/ha)	Plant response rating, Surinam Grass (surinam grass; [1])	Plant response rating, Surinam Grass (surinam grass; [2])	Plant response rating, Monochoria (monochoria; 125 g ai/ha)	Plant response rating, Monochoria (monochoria; 250 g ai/ha)	Plant response rating, Monochoria (monochoria; 500 g ai/ha)	Plant response rating, Surinam Grass (surinam grass; [3])	Plant response rating, Surinam Grass (surinam grass; [4])	also measured
O=C1NCC(c2ccc(Cl)c(Cl)c2)C1C(=O)Nc1ccccc1F (racemic) [Compound 14]	0	0	0	30	80	95	–	–	–	–	–	Plant response rating, Sandbur (sandbur; 16 g ai/ha): 0
O=C1NCC(c2ccc(F)c(F)c2)C1C(=O)Nc1cccc(F)c1F (racemic) [Compound 101]	–	–	–	–	–	–	100	100	100	–	–	Plant response rating, Monochoria (monochoria; 64 g ai/ha): 75
O=C1NCC(c2ccc(C(F)(F)F)cc2)C1C(=O)Nc1cccc(F)c1F (racemic) [Compound 202]	35	70	85	80	–	–	–	–	–	–	–	–
O=C1NCC(c2cccc(C(F)F)c2)C1C(=O)Nc1ccccc1F (racemic) [Compound 210]	–	–	–	–	–	–	65	85	100	–	–	–
O=C1NCC(c2ccc(OC(F)F)cc2)C1C(=O)Nc1cccc(F)c1F (racemic) [Compound 350]	15	35	65	85	–	–	–	–	–	–	–	–
O=C1NCCC1C(=O)N(c1ccc(F)c(F)c1)c1ccccc1F (stereo not shown) [Compound 5, N-(3,4-difluorophenyl)-N-(2-fluorophenyl)-2-oxo-3-pyrrolidinecarboxamide]	–	–	–	–	85	95	75	75	75	–	–	Plant response rating, Monochoria (monochoria; 1000 g ai/ha): 75; Plant response rating, Monochoria (monochoria; 2000 g ai/ha): 75
O=C1NCC(c2ccc(F)c(F)c2)C1C(=O)Nc1cccc(F)c1F (stereo not shown) [Compound 17, N-(2,3-difluorophenyl)-4-(3,4-difluorophenyl)-2-oxo-3-pyrrolidinecarboxamide]	0	50	65	95	90	90	90	90	95	0	0	Plant response rating, Sandbur (sandbur; 16 g ai/ha): 0; Plant response rating, Monochoria (monochoria; 1000 g ai/ha): 95; Plant response rating, Monochoria (monochoria; 2000 g ai/ha): 95; Plant response rating, Surinam Grass (surinam grass; [5]): 45; Plant response rating, Surinam Grass (surinam grass; [6]): 60
O=C1NCC(c2cc(F)c(F)c(F)c2)C1C(=O)Nc1cccc(F)c1F (stereo not shown) [Compound 48]	–	–	–	–	75	85	–	–	–	5	25	Plant response rating, Surinam Grass (surinam grass; Postemergence, 16 g ai/ha, scale 0 to 100 (0 no effect, 100 complete control)): 0; Plant response rating, Surinam Grass (surinam grass; [5]): 25; Plant response rating, Surinam Grass (surinam grass; Preemergence, 16 g ai/ha, scale 0 to 100): 10
O=C1NCC(c2cc(F)c(F)cc2F)C1C(=O)Nc1cccc(F)c1F (stereo not shown) [Compound 50]	–	–	–	–	–	–	–	–	–	5	5	Plant response rating, Surinam Grass (surinam grass; [5]): 5; Plant response rating, Surinam Grass (surinam grass; [6]): 15
O=C1NCC(c2ccc(Cl)c(F)c2)C1C(=O)Nc1cccc(F)c1F (stereo not shown) [Compound 52]	–	–	–	–	35	45	–	–	–	0	5	Plant response rating, Surinam Grass (surinam grass; [6]): 30
O=C1NCC(c2ccc(F)c(Cl)c2)C1C(=O)Nc1ccccc1F (stereo not shown) [Compound 60]	–	–	–	–	70	70	–	–	–	0	0	Plant response rating, Surinam Grass (surinam grass; [5]): 0
O=C1NCC(c2cccc(OC(F)(F)F)c2)C1C(=O)Nc1ccccc1F (stereo not shown) [Compound 69]	–	–	–	–	75	85	–	–	–	–	–	Surinam Grass plant response rating (surinam grass; Preemergence, 31 g ai/ha, scale 0 to 100, 0 is no effect and 100 is complete control): 60; Plant response rating (scale of 0 to 100), Surinam Grass (surinam grass; Preemergence, 250 g ai/ha): 85
O=C1NCC(c2ccc(C(F)(F)F)cc2)C1C(=O)Nc1cccc(F)c1F (stereo not shown) [Compound 80, N-(2,3-difluorophenyl)-2-oxo-4-[4-(trifluoromethyl)phenyl]-3-pyrrolidinecarboxamide]	30	50	65	70	–	–	–	–	–	–	–	Plant response rating, Sandbur (sandbur; 16 g ai/ha): 20
O=C1NC[C@H](c2cccc(C(F)(F)F)c2)[C@H]1C(=O)Nc1ccccc1F [Compound 204, (3R,4S)—N-(2-fluorophenyl)-2-oxo-4-[3-(trifluoromethyl)phenyl]-3-pyrrolidinecarboxamide]	20	50	75	80	–	–	95	100	100	–	–	–
O=C1NC[C@H](c2cccc(C(F)(F)F)c2)[C@H]1C(=O)Nc1cccc(F)c1F [Compound 206]	65	80	95	98	–	–	90	100	100	–	–	Plant response rating, Monochoria (monochoria; 64 g ai/ha): 80
CN1CC(c2ccc(F)c(F)c2)C(C(=O)Nc2cccc(F)c2F)C1=O (stereo not shown) [Compound 303]	–	–	–	–	–	–	100	100	100	–	–	Plant response rating, Monochoria (monochoria; 62 g ai/ha): 100
